Source: paper PMC7054097, “Vanillin Production in Pseudomonas: Whole-Genome Sequencing of Pseudomonas sp. Strain 9.1 and Reannotation of Pseudomonas putida CalA as a Vanillin Reductase” (Applied and Environmental Microbiology, 2020)

What was measured:
[1] = target: T1, PP_3839 (adhP) gene product; calA-II (coniferyl alcohol dehydrogenase) (Pseudomonas putida, UniProt Q88G86); experiment: soluble cell extract, absorbance at […] nm; type: biochemical; settings: 0.5 mM NAD+, 1 mM coniferyl alcohol, 33 mM sodium phosphate pH 7, 30 °C
T1 construct: whole cells or soluble extract

[2] = target: T1, PP_3839 (adhP) gene product; calA-II (coniferyl alcohol dehydrogenase); experiment: soluble cell extract, absorbance at […] nm; also whole-cell HPLC; type: biochemical; settings: 1 mM substrate, 0.5 mM NAD+, 33 mM sodium phosphate pH 7, 30 °C

T1 sequence (Q88G86 1-336): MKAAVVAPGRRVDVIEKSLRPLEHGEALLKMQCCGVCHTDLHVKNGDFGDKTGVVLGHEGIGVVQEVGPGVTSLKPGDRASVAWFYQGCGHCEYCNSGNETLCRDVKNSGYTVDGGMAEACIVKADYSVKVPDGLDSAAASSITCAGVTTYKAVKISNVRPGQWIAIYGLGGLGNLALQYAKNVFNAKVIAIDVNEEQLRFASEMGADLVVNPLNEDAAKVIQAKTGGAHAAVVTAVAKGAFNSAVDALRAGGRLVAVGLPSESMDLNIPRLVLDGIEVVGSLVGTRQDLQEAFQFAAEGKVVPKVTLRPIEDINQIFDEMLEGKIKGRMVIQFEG

Compound	soluble cell extract, absorbance at 365 nm [1]	soluble cell extract, absorbance at 365 nm; also whole-cell HPLC [2]
NC(=O)c1ccc[n+]([C@@H]2O[C@H](COP(=O)(O)OP(=O)(O)OC[C@H]3O[C@@H](n4cnc5c(N)ncnc54)[C@H](O)[C@@H]3O)[C@@H](O)[C@H]2O)c1 [NAD^+]	coniferyl alcohol was rapidly oxidized in the presence of NAD^+	
COc1cc(/C=C/CO)ccc1O [coniferyl alcohol]		coniferyl alcohol was rapidly oxidized in the presence of NAD^+
